# Measurements from patent US11072634B2, “Inhibitors of transglutaminases” (Zedira GmbH, priority 2016, dated 2021).
# What was measured:
# [1] = target: T1, recombinant human tissue transglutaminase (rhTG2) (Homo sapiens, UniProt P21980); assay: Inhibition of rec. human tissue transglutaminase (fluorescence, Abz-APE(CAD-DNP)QEA-OH); assay type: biochemical
# T1 construct: purchased Zedira 1022 (so in the source); T022)
# T1 sequence (P21980 1-687): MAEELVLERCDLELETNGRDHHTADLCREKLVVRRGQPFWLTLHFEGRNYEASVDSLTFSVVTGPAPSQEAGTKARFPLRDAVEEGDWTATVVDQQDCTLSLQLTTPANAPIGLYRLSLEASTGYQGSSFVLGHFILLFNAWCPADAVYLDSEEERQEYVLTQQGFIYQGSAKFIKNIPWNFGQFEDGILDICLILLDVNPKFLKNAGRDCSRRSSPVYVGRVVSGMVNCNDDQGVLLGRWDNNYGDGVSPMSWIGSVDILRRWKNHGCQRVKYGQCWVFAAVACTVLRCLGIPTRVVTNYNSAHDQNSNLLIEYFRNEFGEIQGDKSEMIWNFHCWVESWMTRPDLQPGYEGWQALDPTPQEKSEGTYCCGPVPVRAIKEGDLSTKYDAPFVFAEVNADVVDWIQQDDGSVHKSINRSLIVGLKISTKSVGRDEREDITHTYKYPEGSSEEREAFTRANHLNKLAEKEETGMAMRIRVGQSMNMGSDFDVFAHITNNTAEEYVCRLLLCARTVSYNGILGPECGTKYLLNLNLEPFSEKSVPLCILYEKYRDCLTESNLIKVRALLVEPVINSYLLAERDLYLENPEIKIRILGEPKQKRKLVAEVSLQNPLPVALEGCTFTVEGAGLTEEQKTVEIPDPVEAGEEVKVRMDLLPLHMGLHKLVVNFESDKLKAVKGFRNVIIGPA
# Summary of the method: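 His6-rhTG2 in a master mix (50 mM Tris-HCl pH 7.4, 7.5 mM CaCl2, 150 mM NaCl, 5 mM DTT, 13.4 mM glycine methylester, 50 μM Abz-APE(CAD-DNP)QEA-OH) was added to serially diluted inhibitor. Fluorescence (ex 313/em 418 nm) was followed at 37 °C for 20 min. IC50 came from the 10–20 min slope relative to the 2% DMSO control.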
# [2] = system: CaCo2 (human colon carcinoma cell line); assay: Metabolic activity, EZ4U-Assay; assay type: cell-based; details: highest concentration 1 mM
# Protocol: (§1) The following cell lines are used for determination of cytotoxicity: • CaCo2 (human colon carcinoma cell line) • Huh7 (human liver carcinoma cell line).
# (§2) Cells are cultivated in DMEM/10% FCS at 37° C. and 5% CO2 in a 96 well plate with an initial seeding density of 2×10^4 cells/well.
# (§3) Transglutaminase inhibitors are added to the cells with final concentrations from 0.1 μM to 1 mM one hour after seeding. The different inhibitor dilutions are prepared in DMSO, resulting in a final concentration of 1% (v/v) DMSO in every well (2 μl inhibitor in 200 μl cell culture medium). Cycloheximide (2.5 μg/ml) and Camptothecin (0.2 μg/ml) are used as control compounds. All measurements are performed in triplicates.
# (§4) Determination of metabolic activity using EZ4U-Assay (Biomedica, Cat. No. BI-5000).
# (§5) After 48 h of incubation with inhibitors or controls, the tetrazolium substrate is added to the cells. Substrate turnover by the cells is measured over two hours at 450 nm (using 630 nm was reference wavelength).
# [3] = system: Huh7 (human liver carcinoma cell line); assay: Metabolic activity, EZ4U-Assay; assay type: cell-based; details: highest concentration 1 mM
# Protocol: as §1, §2, §3, §4, §5
Structure (SMILES),"IC50 ([1]; Table 1, TG2 inhibitors)","Cytotoxicity concentration (>10% deviation from negative control), EZ4U, Caoo2 [2]","Cytotoxicity concentration (>10% deviation from negative control), EZ4U, Huh-7 [3]","IC50 ([1]; Table 2, TG2 inhibitors)"
"COC(=O)[C@H](CC(C)C)NC(=O)[C@@H]1CCCN1C(=O)[C@@H](NC(=O)[C@H](CCC(=O)C(N)=O)NC(=O)OCc1ccccc1)C(C)C [Compound E02, (S)-methyl 2-((S)-1-((S)-2-((S)-6-amino-2-(benzyloxycarbonylamino)-5,6-dioxo-hexanamido)-3-methylbutanoyl)pyrrolidine-2-carboxamido)-4-methylpentanoate]",70 nM,>1 mM,>1 mM,–
"CC(=O)N[C@@H](CCC(=O)C(N)=O)C(=O)N1CCN(c2ccccc2Cl)CC1 [Compound E06, (S)-5-acetamido-6-(4-(2-chlorophenyl)piperazin-1-yl)-2,6-dioxohexanamide]",100 nM,>1 mM,>1 mM,–
"CC(=O)N1CCC[C@H]1C(=O)N[C@@H](CCC(=O)C(N)=O)C(=O)N1CCN(c2ncccc2C)CC1 [Compound E07, (S)-1-acetyl-N—((S)-6-amino-1-(4-(3-methylpyridin-2-yl)piperazin-1-yl)-1,5,6-trioxohexan-2-yl)pyrrolidine-2-carboxamide]",100 nM,>1 mM,>1 mM,–
"CCCCCNC(=O)C(=O)CC[C@H](NC(=O)[C@@H]1CCCN1C(C)=O)C(=O)Nc1cccn(CC(=O)NCC(CC)CC)c1=O [Compound E22, (S)-2-((S)-1-acetylpyrrolidine-2-carboxamido)-N1-(1-(2-(2-ethylbutylamino)-2-oxoethyl)-2-oxo-1,2-dihydropyridin-3-yl)-5-oxo-N6-pentylhexanediamide]",–,–,–,85 nM
